Results taken from PubChem BioAssay AID1259407 (Chemical Carcinogenesis Research Information System (CCRIS), 2018).
The source made the active and inactive calls. No rule for the calls is given here.

Tested on: CCRIS mutagenicity, Ames/micronucleus/aberration tests
Assay: CCRIS mutagenicity studies
[1] = Test System: AMES SALMONELLA TYPHIMURIUM, Strain/Indicator: TA98, Metabolic Activation: NONE, Method: STANDARD PLATE
[2] = Test System: AMES SALMONELLA TYPHIMURIUM, Strain/Indicator: TA98, Metabolic Activation: RAT, LIVER, S-9, AROCLOR 1254, Method: STANDARD PLATE
[3] = Test System: AMES SALMONELLA TYPHIMURIUM, Strain/Indicator: TA100, Metabolic Activation: NONE, Method: STANDARD PLATE
[4] = Test System: AMES SALMONELLA TYPHIMURIUM, Strain/Indicator: TA100, Metabolic Activation: RAT, LIVER, S-9, AROCLOR 1254, Method: STANDARD PLATE
[5] = Test System: AMES SALMONELLA TYPHIMURIUM, Strain/Indicator: TA1537, Metabolic Activation: HAMSTER, LIVER, S-9, AROCLOR 1254, Method: STANDARD PLATE
[6] = Test System: AMES SALMONELLA TYPHIMURIUM, Strain/Indicator: TA1537, Metabolic Activation: NONE, Method: STANDARD PLATE
[7] = Test System: AMES SALMONELLA TYPHIMURIUM, Strain/Indicator: TA1537, Metabolic Activation: RAT, LIVER, S-9, AROCLOR 1254, Method: STANDARD PLATE
[8] = Test System: AMES SALMONELLA TYPHIMURIUM, Strain/Indicator: TA100, Metabolic Activation: NONE, Method: PREINCUBATION

## O=c1[nH]cnc2[nH]ncc12
Test System: AMES SALMONELLA TYPHIMURIUM, Strain/Indicator: TA98, Metabolic Activation: HAMSTER, LIVER, S-9, AROCLOR 1254, Method: STANDARD PLATE
  mutagenic call: inactive; negative
[1]
  mutagenic call: inactive; negative
[2]
  mutagenic call: inactive; negative
Test System: AMES SALMONELLA TYPHIMURIUM, Strain/Indicator: TA100, Metabolic Activation: HAMSTER, LIVER, S-9, AROCLOR 1254, Method: STANDARD PLATE
  mutagenic call: inactive; negative
[3]
  mutagenic call: inactive; negative
[4]
  mutagenic call: inactive; negative
Test System: AMES SALMONELLA TYPHIMURIUM, Strain/Indicator: TA1535, Metabolic Activation: HAMSTER, LIVER, S-9, AROCLOR 1254, Method: STANDARD PLATE
  mutagenic call: inactive; negative
Test System: AMES SALMONELLA TYPHIMURIUM, Strain/Indicator: TA1535, Metabolic Activation: NONE, Method: STANDARD PLATE
  mutagenic call: inactive; negative
Test System: AMES SALMONELLA TYPHIMURIUM, Strain/Indicator: TA1535, Metabolic Activation: RAT, LIVER, S-9, AROCLOR 1254, Method: STANDARD PLATE
  mutagenic call: inactive; negative
[5]
  mutagenic call: inactive; negative
[6]
  mutagenic call: inactive; negative
[7]
  mutagenic call: inactive; negative
Test System: AMES SALMONELLA TYPHIMURIUM, Strain/Indicator: TA1538, Metabolic Activation: HAMSTER, LIVER, S-9, AROCLOR 1254, Method: STANDARD PLATE
  mutagenic call: inactive; negative
Test System: AMES SALMONELLA TYPHIMURIUM, Strain/Indicator: TA1538, Metabolic Activation: NONE, Method: STANDARD PLATE
  mutagenic call: inactive; negative
Test System: AMES SALMONELLA TYPHIMURIUM, Strain/Indicator: TA1538, Metabolic Activation: RAT, LIVER, S-9, AROCLOR 1254, Method: STANDARD PLATE
  mutagenic call: inactive; negative
Test System: MOUSE LYMPHOMA, Strain/Indicator: L5178Y (TK+/TK-), Metabolic Activation: NONE, Method: SUSPENSION/PLATE
  mutagenic call: inactive; negative. reevaluation of results: negative
Test System: MOUSE LYMPHOMA, Strain/Indicator: L5178Y (TK+/TK-), Metabolic Activation: RAT, LIVER, S-9, AROCLOR 1254, Method: SUSPENSION/PLATE
  mutagenic call: inactive; negative. reevaluation of results: negative

## C=CCSSCCC
Test System: AMES SALMONELLA TYPHIMURIUM, Strain/Indicator: TA97, Metabolic Activation: HAMSTER, LIVER, S-9, AROCLOR 1254 (10 OR 30%), Method: PREINCUBATION
  mutagenic call: inactive; negative
Test System: AMES SALMONELLA TYPHIMURIUM, Strain/Indicator: TA97, Metabolic Activation: NONE, Method: PREINCUBATION
  mutagenic call: inactive; negative
Test System: AMES SALMONELLA TYPHIMURIUM, Strain/Indicator: TA97, Metabolic Activation: RAT, LIVER, S-9, AROCLOR 1254 (10 OR 30%), Method: PREINCUBATION
  mutagenic call: inactive; negative
Test System: AMES SALMONELLA TYPHIMURIUM, Strain/Indicator: TA98, Metabolic Activation: HAMSTER, LIVER, S-9, AROCLOR 1254 (10 OR 30%), Method: PREINCUBATION
  mutagenic call: inactive; negative
Test System: AMES SALMONELLA TYPHIMURIUM, Strain/Indicator: TA98, Metabolic Activation: NONE, Method: PREINCUBATION
  mutagenic call: inactive; negative
Test System: AMES SALMONELLA TYPHIMURIUM, Strain/Indicator: TA98, Metabolic Activation: RAT, LIVER, S-9, AROCLOR 1254 (10 OR 30%), Method: PREINCUBATION
  mutagenic call: inactive; negative
Test System: AMES SALMONELLA TYPHIMURIUM, Strain/Indicator: TA100, Metabolic Activation: HAMSTER, LIVER, S-9, AROCLOR 1254 (10 OR 30%), Method: PREINCUBATION
  mutagenic call: inactive; negative
[8]
  mutagenic call: inactive; negative
Test System: AMES SALMONELLA TYPHIMURIUM, Strain/Indicator: TA100, Metabolic Activation: RAT, LIVER, S-9, AROCLOR 1254 (10 OR 30%), Method: PREINCUBATION
  mutagenic call: inactive; negative
Test System: AMES SALMONELLA TYPHIMURIUM, Strain/Indicator: TA1535, Metabolic Activation: HAMSTER, LIVER, S-9, AROCLOR 1254 (10 OR 30%), Method: PREINCUBATION
  mutagenic call: inactive; negative
Test System: AMES SALMONELLA TYPHIMURIUM, Strain/Indicator: TA1535, Metabolic Activation: NONE, Method: PREINCUBATION
  mutagenic call: inactive; negative
Test System: AMES SALMONELLA TYPHIMURIUM, Strain/Indicator: TA1535, Metabolic Activation: RAT, LIVER, S-9, AROCLOR 1254 (10 OR 30%), Method: PREINCUBATION
  mutagenic call: inactive; negative

## O=[N+]([O-])c1ccc2c(c1)nc(/C=N/OCc1ccccc1[N+](=O)[O-])n2Cc1ccccc1
[1]
  mutagenic call: active; positive
Test System: AMES SALMONELLA TYPHIMURIUM, Strain/Indicator: TA98, Metabolic Activation: RAT, LIVER, S-9, PHENOBARBITAL AND BETA-NAPHTHOFLAVONE, Method: STANDARD PLATE
  mutagenic call: active; positive
[3]
  mutagenic call: active; positive
Test System: AMES SALMONELLA TYPHIMURIUM, Strain/Indicator: TA100, Metabolic Activation: RAT, LIVER, S-9, PHENOBARBITAL AND BETA-NAPHTHOFLAVONE, Method: STANDARD PLATE
  mutagenic call: active; positive

## Cn1c(-c2ccccc2)c(N=Nc2scc[n+]2C)c2ccccc21
[5]
  mutagenic call: active; positive
[6]
  mutagenic call: active; positive
[7]
  mutagenic call: active; positive
Test System: Mouse lymphoma, Strain/Indicator: L5178Y (tk+/tk-), Metabolic Activation: None, Method: Suspension/plate
  mutagenic call: active; inconclusive (previous evaluation positive)
Test System: Mouse lymphoma, Strain/Indicator: L5178Y (tk+/tk-), Metabolic Activation: Rat, Liver, S-9, Aroclor 1254, Method: Suspension/plate
  mutagenic call: active; inconclusive (previous evaluation positive)

## Brc1ccc(-c2ccc(Br)c(Br)c2)cc1Br
Test System: CHINESE HAMSTER V-79, Strain/Indicator: V-79 (HGPRT)/6-THIOGUANINE, Metabolic Activation: NONE
  mutagenic call: inactive; negative
Test System: CHINESE HAMSTER V-79, Strain/Indicator: V-79 (HGPRT)/6-THIOGUANINE, Metabolic Activation: RAT, LIVER, S-9, AROCLOR 1254
  mutagenic call: inactive; negative

## COc1cc2c(c3oc(=O)c4c(c13)CCC4=O)[C@@H]1CCO[C@@H]1O2
[2]
  mutagenic call: active; positive
[8]
  mutagenic call: active; positive
[4]
  mutagenic call: active; positive
Test System: AMES SALMONELLA TYPHIMURIUM, Strain/Indicator: TA100, Metabolic Activation: RAT, LIVER, S-9, PHENOBARBITAL, Method: PREINCUBATION
  mutagenic call: active; positive
Test System: CHINESE HAMSTER V-79, Strain/Indicator: V-79/6-THIOGUANINE, Metabolic Activation: RAT, LIVER, S-9, PHENOBARBITAL, Method: STANDARD PLATE
  mutagenic call: active; positive
